Publication PMC6049614 (Chemical Communications (Cambridge, England), 2018)
Where a SMILES comes first, the peptide text is derived from it. Bridges are numbered along the chain shown (N, C = ends). [ ]: non-standard residue; d: D form. The star is where a group is joined. X1 = O=C(O)CN1CCN(CC(=O)O)CCN(Cc2ccc(CC(=O)*)cc2)CC1; Mpa = O=C(O)CCS

Tests used:
in vivo = settings: rat; for tissue uptake at 0.5 h / tissue uptake at 10 min: female, Wistar, in vivo, total radioactivity; for tissue uptake at 0.5 h: inhaled or intranasal
Method: To investigate the plausibility of i.n. administration for OT-like therapies, given the similar structure and hydrophilic profile between AlF-NODA-dLVT and OT, in vivo tissue distribution of [^18F]AlF-NODA-dLVT was determined following i.n. or i.v. administration. […]. Here, it is anticipated that both routes show independent kinetic and metabolic profiles and the extended apparent availability of OT following i.n. administration supports a longer timeframe for this study.[27],[28] Distribution was determined through gamma counting of radioactivity in isolated tissue. A large portion underwent excretion via kidneys (i.v. 4.6 ± 0.4%ID per g; i.n. 1.31 ± 0.7%ID per g) and urine (i.v. 2.5 ± 1.2%ID per g; i.n. 7.7 ± 2.2%ID per g), as expected from the hydrophilic character of the tracer, similar to previous results found with radiolabelled OT given i.v. (Fig. 4A).[29]
Fig. 4 Biodistribution of [^18F]AlF-NODA-dLVT in rat. […] Both are shown relative to blood levels following either i.n. (30 min) or i.v. (10 min) administration. Each data point corresponds to mean ± SD, n = 3.
All animal experiments were performed in accordance to the Animals (Scientific Procedures) Act 1986 and were approved by the King’s college London ethical review committee. The work was performed under PPL 70/8230 (Reza Rezavi). Adult female Wistar rats (220 ± 4.5 g) were group housed at 21 ± 1 °C in a 12 h light:dark cycle with ad libitum access to standard rat chow and water. [18F]AlF-NODA-dLVT was formulated in 0.9% saline to contain no more than 5% MeOH. Female Wistar rats received a dose of [18F]AlF-NODA-dLVT by tail vein injection (up to 650 μL in volume), or via nasal administration using a syringe with a plastic cannula attached to one nostril (25 μL per nare).
A 0.3 mL insulin syringe, containing a 29-gauge needle, was fitted with a PE10 cannula (15 mm). The cannula was fitted so that it covered approximately 3 mm of the needle tip.
Radioligand was added to the syringe and the activity measured before and after administration to calculate the injected dose (ID). Anesthesia was induced using a mixture of 5% isoflurane and oxygen (Animalcare, UK) at a flow rate of 1 L/min and maintained at 2.5% isoflurane.
Once unresponsive, the rat was held in an almost vertical position and radioactivity was administered through one nare at the back of the nasal cavity.
Rats were sacrificed by removal of the heart under isoflurane anaesthesia at 10 min following tail vein injection or 30 min following i.n. administration. Major organs were excised, washed with saline, weighed and counted in a gamma counter (LKB Wallac 1282), together with standards of the injection mixture. Organ uptake was calculated as percentage injected dose per gram [%ID/g] of tissue mass. Data are reported as mean ± SD.

physchem = format: physicochemical; settings: pH 7.4
Method: (§1) To justify use of [Al^18F]NODA-dLVT in vivo, tracer lipophilicity and specific binding were determined through a standard shake flask assay and rat brain autoradiography, respectively. A log D7.4 of –0.54 ± 0.1 was established for [Al^18F]NODA-dLVT indicating a hydrophilic profile and potential for low non-specific binding. To investigate the feasibility of [Al^18F]NODA-dLVT for nervous system imaging, tracer was incubated at a concentration of 3 nM, either alone or in the presence of excess OT (10 μM) with brain tissue cut in the sagittal plane to determine total vs. non-specific binding (Fig. 3). This enabled calculation of % specific binding of [Al^18F]NODA-dLVT to regions of brain tissue (ESI, ^† Section 4.2). [^18F]AlF-NODA-dLVT specifically bound regions known to express appreciable levels of OTR (Fig. 3),[23]–[26] including hippocampus (CA1: 53 ± 4%; subiculum, S: 60 ± 1%), central amygdala nucleus (ac: 56 ± 1%), olfactory systems (olfactory tubercle, Tu: 53 ± 5%; anterior olfactory nucleus, AO: 38 ± 2%), acumens nuclei (Acb: 43 ± 4%), and cortical regions (visual cortex, V1: 61 ± 4%; motor cortex, MC: 42 ± 4%).

OTR in rat brain slices = target: T1, OTR in rat brain slices (Rattus norvegicus, UniProt P70536); test: Rat brain autoradiography, specific binding; settings: 3 nM tracer, nonspecific with 10 μM OT, rat brain sagittal slices
T1 construct: from tissue; host or cells: sagittal brain sections of male Wistar rats
T1 sequence (P70536 1-388): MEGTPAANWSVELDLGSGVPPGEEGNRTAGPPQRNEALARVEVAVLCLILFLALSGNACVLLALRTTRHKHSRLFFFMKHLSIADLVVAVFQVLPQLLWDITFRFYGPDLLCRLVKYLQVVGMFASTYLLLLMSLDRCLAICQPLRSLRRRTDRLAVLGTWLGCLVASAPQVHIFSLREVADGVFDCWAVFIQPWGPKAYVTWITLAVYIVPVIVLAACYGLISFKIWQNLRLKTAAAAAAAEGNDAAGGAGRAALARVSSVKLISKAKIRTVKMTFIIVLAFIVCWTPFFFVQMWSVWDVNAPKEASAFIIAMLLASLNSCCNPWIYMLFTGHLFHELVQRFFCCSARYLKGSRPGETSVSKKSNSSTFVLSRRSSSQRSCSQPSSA
Method: as §1
Fig. 3 Specific binding profile of [^18F]AlF-NODA-dLVT. Radiograms of total (top; 3 nM [^18F]AlF-NODA-dLVT) and nonspecific binding (bottom; 3 nM [^18F]AlF-NODA-dLVT and 10 μM OT) of [^18F]AlF-NODA-dLVT to rat brain slices in the sagittal pane. Areas with high specific binding are indicated on the figure with arrow heads. Key: AO = anterior olfactory nucleus; CA1 = field CA1 of the hippocampus; Acb = accumbens nuclei; Tu = olfactory tubercle; VMH = ventromedial hypothalamic nuclei; MC = motor cortex; V1 = primary visual cortex; S = subiculum; ac = central amygdala nucleus; lo = lateral olfactory tract. […]
was 84 ± 2%. After 30 min 18F yields remained at 84 ± 3%.
4.1 Tissue Preparation for rat brain autoradiography
Male Wistar rats (250 g; n=3) were stunned then decapitated. Brains were rapidly removed, incubated in 20% sucrose solution for 2 h, and immediately frozen (-80 °C). Tissues were stored at -80 °C until required. Rat brains were sectioned in the sagittal plane (20 µm thickness; according to the atlas of Paxinos and Watson, 1998). Tissues were cut using a cryostat microtome (CM3050S, Leica, UK), and thaw-mounted onto glass microscope slides. Slides were stored at -80 °C until use.
4.2 Autoradiography Procedure
Tissue was thawed to room temperature, dried then washed with ice cold buffer (50 mM Tris, pH 7.4). Sections were air dried and incubated for 1 h at room temperature with [18F]AlF-NODA-dLVT (3 nM) in buffer (50 mM Tris pH 7.4, 10 mM MgCl2). For nonspecific binding, OT (10 µM) was co-incubated with [18F]AlF-NODA-dLVT (3 nM) over the duration of the experiment. After incubation, slides were washed with ice-cold buffer (2 min × 2), followed by a final wash in ice-cold distilled water (2 min). Slides were dried in a cool airstream then exposed to 18F sensitive phosphor screens (Amersham, UK) with [18F]AlF-NODA-dLVT standards in X-ray cassettes overnight. Phosphor screens were imaged using a Typhoon 8600 scanner (Molecular Dynamics) and images were analysed with OptiQuant 5.0 (Perkin Elmer) and FIJI. Values were converted to relative binding percentages using calibrated [18F]AlF-NODA-dLVT standards. Binding potential (BP) is defined as the binding of tracer in brain region/total activity incubated as determined by the standard. Specific binding in each region is calculated by comparing the total and non-specific BP by the equation: ((total BP – non-specific BP)/total BP) × 100.

[1] = parameters: method as in PMID 693485; settings: following i.v. injection; cited from earlier work

Question: Which results are given for `CC[C@H](C)[C@@H]1NC(=O)[C@H](Cc2ccc(O)cc2)NC(=O)CCSSC[C@@H](C(=O)N2CCC[C@H]2C(=O)N[C@@H](CCCCNC(=O)Cc2ccc(CN3CCN(CC(=O)O)CCN(CC(=O)O)CC3)cc2)C(=O)NCC(N)=O)NC(=O)[C@H](CC(N)=O)NC(=O)[C@H](CCC(N)=O)NC1=O` [[^18F]AlF-NODA-dLVT] ([Mpa]YIQNCPK(X1)G-NH2; disulfide 1-6)?
Answer: tissue uptake at 0.5 h (in vivo; uptake in brain parenchyma): 0.11 ± 0.03 %ID/g; tissue uptake at 0.5 h (in vivo; uptake in cerebellum): 0.31 ± 0.26 %ID/g; tissue uptake at 0.5 h (in vivo; uptake in kidneys): 1.31 ± 0.7 %ID/g; tissue uptake at 0.5 h (in vivo; uptake in olfactory bulb): 2.3 ± 1.8 %ID/g; tissue uptake at 10 min (in vivo; iv, uptake in brain parenchyma): 0.05 ± 0.03 %ID/g; tissue uptake at 10 min (in vivo; iv, uptake in cerebellum): 0.05 ± 0.01 %ID/g; tissue uptake at 10 min (in vivo; iv, uptake in kidneys): 4.6 ± 0.4 %ID/g; tissue uptake at 10 min (in vivo; iv, uptake in olfactory bulb): 0.05 ± 0.02 %ID/g; brain permeable material (in vivo; iv): approximately 4.7 × 10^–2 %ID per g; logD (physchem): -0.54; % specific binding, acumens nuclei (Acb) (OTR in rat brain slices): 43 ± 4%; % specific binding, anterior olfactory nucleus (AO) (OTR in rat brain slices): 38 ± 2%; % specific binding, central amygdala nucleus (ac) (OTR in rat brain slices): 56 ± 1%; % specific binding, hippocampus CA1 (OTR in rat brain slices): 53 ± 4%; % specific binding, motor cortex (MC) (OTR in rat brain slices): 42 ± 4%; % specific binding, olfactory tubercle (Tu) (OTR in rat brain slices): 53 ± 5%; % specific binding, subiculum (S) (OTR in rat brain slices): 60 ± 1%; % specific binding, visual cortex (V1) (OTR in rat brain slices): 61 ± 4%

Question: For `CC[C@H](C)[C@@H]1NC(=O)[C@H](Cc2ccc(O)cc2)NC(=O)[C@@H](N)CSSC[C@@H](C(=O)N2CCC[C@H]2C(=O)N[C@@H](CC(C)C)C(=O)NCC(N)=O)NC(=O)[C@H](CC(N)=O)NC(=O)[C@H](CCC(N)=O)NC1=O` [OTc, oxytocin], which plasma half-life [1] is on record?
Answer: Its plasma half-life is “approximately 3 min”.
